Source: ChEMBL document CHEMBL1201861, “Genomics of Drug Sensitity in Cancer screening data, Wellcome Trust Sanger Institute”

Columns and labels:
Assay in all cases: cells
KY821 = type: functional, cell-based; details: Homo sapiens;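 also: growth inhibition of human KY821 cells, read out by a cell viability assay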
Description: SANGER: Inhibition of human KY821 cell growth in a cell viability assay.

ML-2 = type: functional, cell-based; details: Homo sapiens;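 also: growth inhibition of ML-2 cells, measured with a cell viability readout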
Description: SANGER: Inhibition of human ML-2 cell growth in a cell viability assay.

SW 962 = type: functional, cell-based, Homo sapiens; details: Homo sapiens, SW 962;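 also: growth inhibition of human SW962 cells, read out by a cell viability assay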
Description: SANGER: Inhibition of human SW962 cell growth in a cell viability assay.

MDA-MB-415 = type: functional, cell-based; details: Homo sapiens
OVCAR-8 = type: functional, cell-based, Homo sapiens; details: Homo sapiens, OVCAR-8;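 also: growth inhibition of human OVCAR-8 cells, read out by a cell viability assay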
Description: SANGER: Inhibition of human OVCAR-8 cell growth in a cell viability assay.

LK-2 = type: functional, cell-based, Homo sapiens; details: Homo sapiens, LK-2;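 also: growth inhibition of LK-2 cells, read out with a viability assay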
Description: SANGER: Inhibition of human LK-2 cell growth in a cell viability assay.

ES1 = type: functional, cell-based, Homo sapiens; details: Homo sapiens, ES1;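 also: growth inhibition of ES1 cells, read out with a cell viability assay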
Description: SANGER: Inhibition of human ES1 cell growth in a cell viability assay.

DSH1 = type: functional, cell-based, Homo sapiens; details: Homo sapiens, DSH1;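 also: growth inhibition of human DSH1 cells, measured with a cell viability readout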
Description: SANGER: Inhibition of human DSH1 cell growth in a cell viability assay.

SW1463 = type: functional, cell-based, Homo sapiens; details: Homo sapiens, SW1463;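 also: growth inhibition of SW1463 cells, determined with a cell viability assay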
Description: SANGER: Inhibition of human SW1463 cell growth in a cell viability assay.

TGBC24TKB = type: functional, cell-based, Homo sapiens; details: Homo sapiens, TGBC24TKB;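 also: growth inhibition of human TGBC24TKB cells, read out with a cell viability assay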
Description: SANGER: Inhibition of human TGBC24TKB cell growth in a cell viability assay.

HLE = type: functional, cell-based, Homo sapiens; details: Homo sapiens, HLE;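 also: growth inhibition of human HLE cells, read out by a cell viability assay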
Description: SANGER: Inhibition of human HLE cell growth in a cell viability assay.

CGTH-W-1 = type: functional, cell-based, Homo sapiens; details: Homo sapiens, CGTH-W-1;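 also: growth inhibition of human CGTH-W-1 cells measured by cell viability assay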
Description: SANGER: Inhibition of human CGTH-W-1 cell growth in a cell viability assay.

NCI-H1395 = type: functional, cell-based, Homo sapiens; details: Homo sapiens, NCI-H1395;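 also: cell viability assay read-out quantifying reduced proliferation of human NCI-H1395 cells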
Description: SANGER: Inhibition of human NCI-H1395 cell growth in a cell viability assay.

NCI-H446 = type: functional, cell-based; details: Homo sapiens;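 also: growth inhibition of NCI-H446 cells determined by a cell viability assay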
Description: SANGER: Inhibition of human NCI-H446 cell growth in a cell viability assay.

NEC8 = type: functional, cell-based, Homo sapiens; details: Homo sapiens, NEC8;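 also: growth inhibition of human NEC8 cells, read out by a cell viability assay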
Description: SANGER: Inhibition of human NEC8 cell growth in a cell viability assay.

SK-MEL-1 = type: functional, cell-based; details: Homo sapiens;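 also: growth inhibition of human SK-MEL-1 cells, read out by a cell viability assay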
Description: SANGER: Inhibition of human SK-MEL-1 cell growth in a cell viability assay.

PSN1 = type: functional, cell-based, Homo sapiens; details: Homo sapiens, PSN1;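 also: suppression of growth of human PSN1 cells, read out by a cell viability assay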
Description: SANGER: Inhibition of human PSN1 cell growth in a cell viability assay.

RMG-I = type: functional, cell-based, Homo sapiens; details: Homo sapiens, RMG-I;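 also: growth inhibition of human RMG-I cells, read out with a cell viability assay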
Description: SANGER: Inhibition of human RMG-I cell growth in a cell viability assay.

786-0 = type: functional, cell-based, Homo sapiens; details: Homo sapiens
Description: SANGER: Inhibition of human 786-0 cell growth in a cell viability assay.

SNU1 = type: functional, cell-based; details: Homo sapiens;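 also: growth inhibition of human NCI-SNU-1 cells, measured with a cell viability assay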
Description: SANGER: Inhibition of human NCI-SNU-1 cell growth in a cell viability assay.

CAKI-1 = type: functional, cell-based, Homo sapiens; details: Homo sapiens, CAKI-1;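 also: growth inhibition of CAKI-1 cells, measured by a cell viability assay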
Description: SANGER: Inhibition of human CAKI-1 cell growth in a cell viability assay.

HCC2218 = type: functional, cell-based; details: Homo sapiens;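 also: cell viability assay read-out, with IC50 given as the concentration that inhibits growth of the cell line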
Description: SANGER: Inhibition of human HCC2218 cell growth in a cell viability assay.

KU-19-19 = type: functional, cell-based, Homo sapiens; details: Homo sapiens, KU-19-19
Description: SANGER: Inhibition of human KU-19-19 cell growth in a cell viability assay.

HGC-27 = type: functional, cell-based, Homo sapiens; details: Homo sapiens, HGC-27;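 also: growth inhibition of human HGC-27 cells, read out in a cell viability assay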
Description: SANGER: Inhibition of human HGC-27 cell growth in a cell viability assay.

Lu-65 = type: functional, cell-based; details: Homo sapiens;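 also: growth inhibition of Lu-65 cancer cells, read out by a cell viability assay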
Description: SANGER: Inhibition of human LU-65 cell growth in a cell viability assay.

MFH-ino = type: functional, cell-based; details: Homo sapiens;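 also: growth inhibition of human MFH-ino cells, read out by a cell viability assay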
Description: SANGER: Inhibition of human MFH-ino cell growth in a cell viability assay.

EOL1 = type: functional, cell-based; details: Homo sapiens;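 also: growth inhibition of EoL-1 cells, read out by a cell viability assay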
Description: SANGER: Inhibition of human EoL-1-cell cell growth in a cell viability assay.

EW-1 = type: functional, cell-based, Homo sapiens; details: Homo sapiens, EW-1
Description: SANGER: Inhibition of human EW-1 cell growth in a cell viability assay.

PA-1 = type: functional, cell-based, Homo sapiens; details: Homo sapiens, PA-1;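 also: IC50 for suppression of PA-1 cell proliferation, determined with a cell viability read-out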
Description: SANGER: Inhibition of human PA-1 cell growth in a cell viability assay.

A-427 = type: functional, cell-based, Homo sapiens; details: Homo sapiens, A-427;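 also: growth inhibition of human A-427 cells, read out by a cell viability assay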
Description: SANGER: Inhibition of human A427 cell growth in a cell viability assay.

J82 = type: functional, cell-based; details: Homo sapiens;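 also: growth inhibition of J82 cells, read out with a cell viability assay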
Description: SANGER: Inhibition of human J82 cell growth in a cell viability assay.

LB373-MEL-D = type: functional, cell-based, Homo sapiens; details: Homo sapiens, LB373-MEL-D;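 also: growth inhibition of the cell line, read out in a cell viability assay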
Description: SANGER: Inhibition of human LB373-MEL-D cell growth in a cell viability assay.

SiHa = type: functional, cell-based, Homo sapiens; details: Homo sapiens, SiHa;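 also: Viability-based readout of growth inhibition in SiHa cells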
Description: SANGER: Inhibition of human SiHa cell growth in a cell viability assay.

HCC1937 = type: functional, cell-based, Homo sapiens; details: Homo sapiens, HCC1937;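 also: growth inhibition measured with a cell viability read-out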
Description: SANGER: Inhibition of human HCC1937 cell growth in a cell viability assay.

HuTu80 = type: functional, cell-based, Homo sapiens, HUTU-80; details: Homo sapiens, HuTu80;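 also: growth inhibition of HuTu80 human cells, determined with a cell viability readout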
Description: SANGER: Inhibition of human HUTU-80 cell growth in a cell viability assay.

EW-11 = type: functional, cell-based, Homo sapiens; details: Homo sapiens, EW-11;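 also: growth inhibition of human EW-11 cells, measured with a cell viability assay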
Description: SANGER: Inhibition of human EW-11 cell growth in a cell viability assay.

EGI-1 = type: functional, cell-based, Homo sapiens; details: Homo sapiens, EGI-1;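 also: cell viability readout used to gauge growth inhibition of EGI-1 cells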
Description: SANGER: Inhibition of human EGI-1 cell growth in a cell viability assay.

EFO-27 = type: functional, cell-based, Homo sapiens; details: Homo sapiens, EFO-27;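 also: growth inhibition of EFO-27 cells, read out with a cell viability assay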
Description: SANGER: Inhibition of human EFO-27 cell growth in a cell viability assay.

NCI-H1770 = type: functional, cell-based; details: Homo sapiens;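 also: growth inhibition of NCI-H1770 cells determined with a viability readout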
Description: SANGER: Inhibition of human NCI-H1770 cell growth in a cell viability assay.

KMOE-2 = type: functional, cell-based; details: Homo sapiens;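 also: growth inhibition of human KMOE-2 cells, read out with a cell viability assay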
Description: SANGER: Inhibition of human KMOE-2 cell growth in a cell viability assay.

TE-9 = type: functional, cell-based, Homo sapiens; details: Homo sapiens, TE-9;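 also: cell growth inhibition, measured with a cell viability readout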
Description: SANGER: Inhibition of human TE-9 cell growth in a cell viability assay.

PC-14 = type: functional, cell-based, Homo sapiens; details: Homo sapiens, PC-14;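 also: cell viability assay measuring inhibition of PC-14 cell growth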
Description: SANGER: Inhibition of human PC-14 cell growth in a cell viability assay.

LS-1034 = type: functional, cell-based, Homo sapiens; details: Homo sapiens, LS-1034
Description: SANGER: Inhibition of human LS-1034 cell growth in a cell viability assay.

MC-IXC = type: functional, cell-based, Homo sapiens; details: Homo sapiens, MC-IXC;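 also: growth inhibition of MC-IXC cells, read out with a cell viability assay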
Description: SANGER: Inhibition of human MC-IXC cell growth in a cell viability assay.

NCI-H1993 = type: functional, cell-based, Homo sapiens; details: Homo sapiens, NCI-H1993;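 also: growth inhibition of the cancer cell line, assessed with a cell viability assay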
Description: SANGER: Inhibition of human NCI-H1993 cell growth in a cell viability assay.

5637 = type: functional, cell-based, Homo sapiens; details: Homo sapiens
Description: SANGER: Inhibition of human 5637 cell growth in a cell viability assay.

NCI-H661 = type: functional, cell-based, Homo sapiens; details: Homo sapiens, NCI-H661;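 also: cell viability assay read-out, IC50 being the concentration that inhibits growth of the cells by half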
Description: SANGER: Inhibition of human NCI-H661 cell growth in a cell viability assay.

SAS = type: functional, cell-based, Homo sapiens; details: Homo sapiens, SAS;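 also: growth inhibition of SAS cells, read out with a cell viability assay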
Description: SANGER: Inhibition of human SAS cell growth in a cell viability assay.

COLO-320-HSR = type: functional, cell-based; details: Homo sapiens;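 also: growth inhibition of COLO-320-HSR cells, determined with a cell viability assay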
Description: SANGER: Inhibition of human COLO-320-HSR cell growth in a cell viability assay.

P12-Ichikawa = type: functional, cell-based; details: Homo sapiens
HOP-62 = type: functional, cell-based, Homo sapiens; details: Homo sapiens, HOP-62;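 also: cell growth inhibition determined with a viability assay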
Description: SANGER: Inhibition of human HOP-62 cell growth in a cell viability assay.

CHL-1 = type: functional, cell-based, Homo sapiens; details: Homo sapiens, CHL-1;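 also: cell growth inhibition, read out with a cell viability assay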
Description: SANGER: Inhibition of human CHL-1 cell growth in a cell viability assay.

Measured: IC50

C=CCc1cccc(/C=N/NC(=O)CN2CCN(Cc3ccccc3)CC2)c1O [PAC-1]
2.54 µM: HOP-62
> 2.56 µM: KY821 | ML-2 | SW 962 | MDA-MB-415 | OVCAR-8 | LK-2 | ES1 | DSH1 | SW1463 | TGBC24TKB | HLE | CGTH-W-1 | NCI-H1395 | NCI-H446 | NEC8 | SK-MEL-1 | PSN1 | RMG-I | SNU1 | CAKI-1 | HCC2218 | KU-19-19 | HGC-27 | Lu-65 | MFH-ino | EOL1 | EW-1 | PA-1 | A-427 | J82 | LB373-MEL-D | SiHa | HCC1937 | HuTu80 | EW-11 | EGI-1 | EFO-27 | NCI-H1770 | KMOE-2 | TE-9 | PC-14 | LS-1034 | MC-IXC | NCI-H1993 | 5637 | NCI-H661 | SAS | COLO-320-HSR | P12-Ichikawa | CHL-1
0.739 µM: 786-0
